From publication PMC6365506, “Plasmodium falciparum specific helicase 2 is a dual, bipolar helicase and is crucial for parasite growth” (Scientific Reports, 2019)

Experiments:
PfPSH2 [1] = target: T1, PfPSH2 (Plasmodium falciparum, UniProt A0A1Q1G9G0); test: DNA helicase unwinding assay, gel autoradiography; assay type: biochemical; settings: 32P-labelled partial duplex DNA; dATP in place of ATP; 1.0 mM MgCl2, pH 8.0, 37 °C; 80 nM protein
T1 construct: gene PSH2; full length, 880 residues, ~105 kDa, His-tagged (pET28a+), expressed in E. coli BL21 codon Plus, Ni-NTA purified
T1 sequence (A0A1Q1G9G0 1-880): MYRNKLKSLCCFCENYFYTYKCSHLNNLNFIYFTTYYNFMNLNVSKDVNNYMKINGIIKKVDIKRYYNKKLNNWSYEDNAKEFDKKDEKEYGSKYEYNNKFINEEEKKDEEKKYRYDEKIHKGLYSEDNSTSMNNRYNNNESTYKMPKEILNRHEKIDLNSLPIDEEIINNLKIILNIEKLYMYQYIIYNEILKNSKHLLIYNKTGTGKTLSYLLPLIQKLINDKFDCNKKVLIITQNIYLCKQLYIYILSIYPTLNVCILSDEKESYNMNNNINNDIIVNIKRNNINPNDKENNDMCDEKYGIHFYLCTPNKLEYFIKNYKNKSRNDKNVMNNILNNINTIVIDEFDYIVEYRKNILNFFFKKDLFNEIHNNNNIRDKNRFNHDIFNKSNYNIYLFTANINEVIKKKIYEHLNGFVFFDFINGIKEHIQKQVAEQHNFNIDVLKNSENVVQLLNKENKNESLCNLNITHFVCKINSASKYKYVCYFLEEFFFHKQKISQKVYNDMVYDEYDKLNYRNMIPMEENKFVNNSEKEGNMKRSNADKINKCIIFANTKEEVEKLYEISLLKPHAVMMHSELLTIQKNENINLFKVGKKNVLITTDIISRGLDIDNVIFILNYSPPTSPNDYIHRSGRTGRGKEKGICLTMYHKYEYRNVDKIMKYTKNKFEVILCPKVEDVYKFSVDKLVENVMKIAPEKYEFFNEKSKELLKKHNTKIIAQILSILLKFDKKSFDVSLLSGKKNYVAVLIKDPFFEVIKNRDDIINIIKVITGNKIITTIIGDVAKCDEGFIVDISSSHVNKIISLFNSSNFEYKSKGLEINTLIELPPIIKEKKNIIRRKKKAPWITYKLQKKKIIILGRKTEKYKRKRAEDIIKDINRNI

PfPSH2 [2] = target: T1, PfPSH2; test: radiolabelled Pi release, TLC; assay type: biochemical; settings: M13mp19 ssDNA or total RNA as stimulator; 1.0 mM MgCl2, pH 8.0, 37 °C; labelled compound ([γ-32P]ATP with 1 mM cold ATP)

Structure (SMILES)	DNA helicase unwinding assay, gel autoradiography (PfPSH2 [1])	radiolabelled Pi release, TLC (PfPSH2 [2])
Nc1ncnc2c1ncn2[C@H]1C[C@H](O)[C@@H](COP(=O)(O)OP(=O)(O)OP(=O)(O)O)O1 [dATP]	PfPSH2 prefers ATP and dATP for unwinding the duplex substrate	
Nc1ncnc2c1ncn2[C@@H]1O[C@H](COP(=O)(O)OP(=O)(O)OP(=O)(O)O)[C@@H](O)[C@H]1O [ATP]		PfPSH2 shows concentration-dependent ATPase activity in the presence of DNA
